From PMC6141739, “TFPI-2 Protects Against Gram-Negative Bacterial Infection” (Frontiers in Immunology, 2018)

Experiments:
IgE = IgE (Homo sapiens, UniProt P01854); assay: Binding to IgE, SDS-PAGE and immunoblotting; conditions: 0.5 μg EDC34 with 3 μg IgE, 1 h 37°C; immunoblot (Figure 1C)
Experimental: (§1) Three μg of IgG or IgA or IgE or IgM were incubated in 20 μl of buffer (10 mM Tris, 150 mM NaCl, pH 7.4), either alone or with 0.5 μg (6 μM) of EDC34 for 1 h at 37°C. Samples were diluted in SDS buffer and analyzed under non-reducing conditions by SDS-PAGE on Criterion TGX Any kD Gel (BioRad). Alternatively, EDC34 (6 μM) was incubated either alone or in PBS containing 20% serum, citrate, lepirudin, EDTA plasma at different time points (15, 30, 60, and 120 min). Samples were analyzed under non-reducing conditions.

Gram-negative bacteria = conditions: cited from earlier work
Source text: (§2) Previous studies have shown that complement activation can be amplified by targeting certain proteins such as complement factor C3 ([33]). Elvington et al. for instance described in 2012 a method showing that complement activation can be used as cancer therapy. To this end the authors employed a fusion protein of a complement receptor and an IgG Fc fragment to improve the outcome of mAb therapy in a murine metastatic cancer model ([33]). […] Moreover EDC34 is able to up re ...

C3a = conditions: cited from earlier work
Source text: as §2

C1q = conditions: cited from earlier work
Source text: as §2

Fc-IgG = assay: Binding to Fc fragment of IgG, western blot; conditions: 6 μM EDC34 with 6 μM Fc-IgG, 30 min 37°C; western blot (Figure 1E)
Experimental: (§3) Six μM of EDC34 was either incubated alone or with IgGs in 10 mM Tris, 150 mM NaCl, pH 7.4 buffer, under similar concentrations for 15, 30, 60, 120 min or 24 h at 37°C. In another experiment, 6 μM of EDC34 was pre-incubated with 50 μM of TCEP (tris(2-carboxyethyl)phosphine) for 30 min at room temperature before IgG (6 μM) was added. The mixture was further incubated for 24 h at 37°C. In another experiment, 6 μM of IgG or Fab-IgG or Fc-IgG were incubated with or without 6 μM of EDC34 in 10 mM Tris, 150 mM NaCl, pH 7.4 buffer for 30 min at 37°C. Proteins and peptides were transferred to nitrocellulose membranes (Hybond-C), blocked by 5% (w/v) skimmed milk, washed and incubated with rabbit polyclonal antibodies to CAK27 or rabbit polyclonal antibodies to IgG (or 1:1,000) (Dako) or rabbit polyclonal antibodies to C1q (or 1:1,000) (Dako). Polyclonal swine anti-rabbit immunoglobulin secondary HRP antibody (1:1,000) was used for detection and an enhanced chemiluminescent Substrate (LumiGLO) developing system (Upstate cell signaling solutions).

IgM = assay: Binding to IgM, SDS-PAGE and immunoblotting; design: species or system human; conditions: 0.5 μg EDC34 with 3 μg IgM, 1 h 37°C; immunoblot (Figure 1C)
Sequence of IgM (P01871 1-453 isoform P01871-1): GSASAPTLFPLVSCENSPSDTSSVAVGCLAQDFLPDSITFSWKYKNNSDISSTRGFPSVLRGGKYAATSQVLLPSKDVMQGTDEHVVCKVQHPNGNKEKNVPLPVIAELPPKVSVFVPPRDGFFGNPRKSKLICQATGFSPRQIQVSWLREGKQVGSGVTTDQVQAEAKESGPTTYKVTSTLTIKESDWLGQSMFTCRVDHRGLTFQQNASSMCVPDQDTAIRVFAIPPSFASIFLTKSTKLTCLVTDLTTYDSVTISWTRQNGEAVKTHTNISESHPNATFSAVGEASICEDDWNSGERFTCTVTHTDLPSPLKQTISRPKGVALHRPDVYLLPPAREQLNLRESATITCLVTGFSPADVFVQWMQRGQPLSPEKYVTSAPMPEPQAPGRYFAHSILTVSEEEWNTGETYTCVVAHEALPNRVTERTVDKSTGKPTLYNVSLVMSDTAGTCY
Sequence of IgM (P01591 23-159, further chain): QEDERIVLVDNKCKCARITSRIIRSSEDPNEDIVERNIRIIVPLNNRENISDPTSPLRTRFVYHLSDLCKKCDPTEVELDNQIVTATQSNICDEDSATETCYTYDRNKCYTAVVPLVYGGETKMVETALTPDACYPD
Experimental: as §1

Escherichia coli [1] = assay: Viable count assay (VCA); format: cell-based, Escherichia coli ATCC 25922
Experimental: Escherichia coli bacteria were grown to mid-logarithmic phase in 10 ml of (3% w/v) Todd-Hewitt (TH), bacteria were washed and diluted in buffer 10 mM Tris, pH 7.4, containing 150 mM NaCl, either alone or with the presence of human 20% citrate plasma, lepirudin, heparin, EDTA plasma, or serum. 1–2 × 10^6 cfu/ml bacteria were incubated in a total volume of 50 μl with the indicated concentrations of C-terminal TFPI-2 derived peptides for 2 h at 37°C. Alternatively, 1–2 × 10^6 cfu/ml of E. coli bacteria in the presence or absence of EDC34 were incubated either in PBS alone or PBS supplemented with 25% of human citrated plasma, immunoglobulins depleted citrated plasma, or immunoglobulins depleted citrated plasma supplemented with 10 μg of IgG/μl, for 2 h at 37°C. Serial of dilutions of the reaction mixture were plated on TH agar plates, followed by the incubation at 37°C overnight. The number of colony forming units was determined as a percentage to control sample.

human IgG = assay: Surface plasmon resonance on IgG-coated chip; format: binding; conditions: SPR, IgG on CM5 chip, peptide 25–400 nM, 25°C, Hepes running buffer pH 7.5 (Figure 3E)
Experimental: IgG was immobilized (15 μg/mL) on a CM5 sensor chip via amine coupling in a 10 mM sodium acetate buffer (pH 4). A blank immobilization was performed in flow cell one. EDC34 was injected at different concentrations (25–400 nM) at a flow rate of 30 μl/min and a temperature of 25°C over the flow cells using a running buffer containing 10 mm Hepes, 150 mm NaCl, 0.005% surfactant P20, and 3.4 mM EDTA (pH 7.5). Regeneration of the sensor surface was conducted in 0.5 M sodium chloride. The analysis was performed using a Biacore X100 instrument (GE Healthcare, Uppsala, Sweden) and the data was fitted using a 1:1 binding model.

Fab-IgG = assay: Binding to Fab fragment of IgG, western blot; conditions: 6 μM EDC34 with 6 μM Fab-IgG, 30 min 37°C; western blot (Figure 1E)
Experimental: as §3

[2] = tested on: human IgG on E. coli bacteria; assay: Pull down assay, IgG opsonization on the bacterial surface; design: species or system Escherichia coli
Experimental: In a total volume of 500 μl PBS buffer, 2 μM of EDC34, and 8 μM of IgG were incubated for 24 h at 37°C. Subsequently, E. coli bacteria (1–2 × 10^6 cfu/ml) were added, and then the mixture was incubated for additional 1 h. In a parallel experiment, the bacteria in the presence of absence of EDC34 were incubated for 30 min at 37°C before IgG was added for 1 h at 37°C. Samples were then centrifuged, bacterial pellets were washed twice with PBS and then re-suspended in 360 μl of 0.1 M glycine, pH 2.0 to elute the bound proteins. The pH of the eluted material was raised to 7.5 with 1 M Tris. Thereafter, 100 μl of 100% TCA were added to precipitate the eluted proteins followed by incubation for 10 min at −20° C followed by a centrifugation step for 20 min at 15,000 × g (4°C). The pellets were washed with acetone and left to air dry before they were dissolved in loading dye and analyzed under non-reducing conditions by SDS-PAGE, followed by Western blot analysis.

IgA = assay: Binding to IgA, SDS-PAGE and immunoblotting; design: species or system human; conditions: 0.5 μg EDC34 with 3 μg IgA, 1 h 37°C; immunoblot (Figure 1C)
Experimental: as §1

Escherichia coli [3] = assay: Radial diffusion assay (RDA); format: cell-based; conditions: 100 μM peptide, high salt (150 mM NaCl), n = 3 (Figure 3C,D)
Experimental: Escherichia coli was grown to mid-logarithmic phase in 10 ml (3% w/v) of trypticase soy broth (TSB). Bacteria were washed and re-suspended in 10 mM Tris, pH 7.4 to obtain a dilution of 1% of bacterial suspension (1–2 × 10^9 colony forming units cfu/ml). Subsequently, 6.6 μl of bacteria were added to 15 ml of melted underlay agarose gel consisting of 0.03% (w/v) TSB, 1% (w/v) low electroendosmosis type (EEO) agarose and 0.02% (v/v) Tween 20 (Sigma) with or without 150 mM NaCl. The mixture was poured to a 144 mm sterile petri dish and left to solidify. After that, 4 mm diameter wells were punctured and 100 μM peptides were added to each well. Plates were incubated for 3 h at 37°C and then covered by adding 15 ml of over-lay gel consisting of 6% TSB and 1% Low-EEO agarose in Millipore water. After 16–24 h of incubation at 37°C, the peptides diffusion around each well formed the zone of inhibition, which corresponded to the peptide's antimicrobial activity.

[4] = tested on: C1q on the surface of E. coli bacteria; assay: Pull down assay, C1q recruitment to the bacterial surface; design: species or system Escherichia coli; conditions: citrate plasma with 10 μM EDC34, 1 h 37°C; anti-C1q immunoblot; versus plasma alone (Figure 2B)
IgG = assay: Binding to IgG, SDS-PAGE and immunoblotting; design: species or system human
Experimental: as §1
as §3, with “Polyclonal swine anti-rabbit immunoglobulin secondary HRP antibody (1:1,000) was used for detection and an enhanced chemiluminescent Substrate (LumiGLO) developing system (Upstate cell signaling solutions).” left out

P. aeruginosa = assay: Viable count assay (VCA); format: cell-based, Pseudomonas aeruginosa; conditions: 20% human citrate plasma, 2 h 37°C (Figure 3A,B); text does not separate the two bacteria

Sequence of IgE (P01854 1-428 isoform P01854-1): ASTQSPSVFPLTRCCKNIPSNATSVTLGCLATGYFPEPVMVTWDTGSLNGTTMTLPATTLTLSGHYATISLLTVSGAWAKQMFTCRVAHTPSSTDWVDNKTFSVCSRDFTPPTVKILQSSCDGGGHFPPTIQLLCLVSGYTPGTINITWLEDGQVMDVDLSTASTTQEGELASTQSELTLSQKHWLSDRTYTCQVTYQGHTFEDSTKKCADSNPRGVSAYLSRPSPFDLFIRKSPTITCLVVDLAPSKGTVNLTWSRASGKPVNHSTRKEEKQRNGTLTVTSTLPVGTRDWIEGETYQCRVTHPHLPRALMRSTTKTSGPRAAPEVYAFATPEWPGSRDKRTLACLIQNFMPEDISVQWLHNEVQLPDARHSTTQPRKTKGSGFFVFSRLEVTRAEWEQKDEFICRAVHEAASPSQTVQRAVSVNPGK

EDCKRACAKALKKKKKMPKLRFASRIRKIRKKQF [EDC34, C-terminal peptide derived from human TFPI-2]
binding to IgE (IgE): avidly binds | eradication of Gram-negative bacteria in vivo (Gram-negative bacteria): significant capacity to eradicate | antimicrobial activity of C3a (C3a): able to up regulate the antimicrobial activity of C3a | binding of C1q to bacterial surfaces (C1q): enhances the binding of C1q to bacterial surfaces | binding to Fc fragment of IgG (Fc-IgG): able to bind | binding to IgM (IgM): avidly binds | antimicrobial activity against E. coli (Escherichia coli [1]; EDC34 6 μM, 10 mM Tris, 150 mM NaCl, pH 7.4 with 20% citrate plasma, 2 h 37°C, n = 3 (Figure 1A)): completely eradicate the bacteria | antimicrobial activity against E. coli (Escherichia coli [1]; EDC34 6 μM, buffer with 20% EDTA plasma, 2 h 37°C, n = 3 (Figure 1A)): decreased | bacterial survival rate (Escherichia coli [1]; EDC34 6 μM, buffer with 20% heparin plasma, 2 h 37°C, n = 3 (Figure 1A)): exceeding 80% | antimicrobial activity against E. coli (Escherichia coli [1]; EDC34 6 μM, buffer with 20% lepirudin plasma, 2 h 37°C, n = 3 (Figure 1A)): decreased | antimicrobial activity against E. coli (Escherichia coli [1]; EDC34 6 μM, buffer with 20% serum, 2 h 37°C, n = 3 (Figure 1A)): decreased | killing of E. coli (Escherichia coli [1]; EDC34 in PBS alone, 2 h 37°C, n = 3 (Figure 2C)): moderate killing activity | killing of E. coli (Escherichia coli [1]; EDC34 in PBS with 25% citrate plasma, 2 h 37°C, n = 3 (Figure 2C)): ~100% | antimicrobial activity (Escherichia coli [1]; EDC34 in PBS with 25% immunoglobulin-depleted citrate plasma reconstituted with IgG, 2 h 37°C, n = 3 (Figure 2C)): retained its full antimicrobial activity | bacterial survival (Escherichia coli [1]; EDC34 in PBS with 25% immunoglobulin-depleted citrate plasma, 2 h 37°C, n = 3 (Figure 2C)): Bacterial survival was increased | affinity for human IgG (human IgG): highest affinity | binding to Fab fragment of IgG (Fab-IgG): only the Fc fragment is able to bind | opsonization of immunoglobulin on the bacterial surface ([2]; EDC34 (2 μM) pre-incubated with IgG (8 μM) 24 h in PBS, then E. coli 1 h 37°C (Figure 2A)): increased opsonization | opsonization of immunoglobulin on the bacterial surface ([2]; EDC34 first preincubated with E. coli bacteria, then mixed with human IgG (Figure 2A)): less pronounced | binding to IgA (IgA): avidly binds | antimicrobial activity, zone of inhibition (Escherichia coli [3]): able impair bacterial growth | C1q at the surface of E. coli bacteria [4]: recruitment of C1q | binding to IgG (IgG; 0.5 μg EDC34 with 3 μg IgG, 10 mM Tris, 150 mM NaCl, pH 7.4, 1 h 37°C, immunoblot (Figure 1C)): avidly binds | interaction with IgG over time (IgG; EDC34 and IgG 1:1 (6 μM), 37°C, after 24 h incubation (Figure 1D)): entirely absorbed

DAAQEPTGNNAET [DAA14, control peptide derived from the N-terminal region of human TFPI-2, reference compound]
antimicrobial activity in plasma, P. aeruginosa (P. aeruginosa): no antimicrobial activity | antimicrobial activity in plasma, E. coli (Escherichia coli [1]; 20% human citrate plasma, 2 h 37°C (Figure 3A,B), text does not separate the two bacteria): no antimicrobial activity
